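Growth conditions: 96-well plates. Treatment: test compound, 48 hours, 5 concentrations. Analysis: linear interpolation between bracketing concentrations; unreached endpoints set to highest concentration. TGI: total growth inhibition.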

The values below come from PubChem BioAssay (NCI).

Common to all, as to assay: NCI tumour cell line growth inhibition, 48 h
Assay [1] relates to DMS 273 small cell lung.
Assay [2] deals with M19-MEL melanoma.
Assay [3] has as its system KM20L2 colon.
The test system of assay [4] is P388 leukemia.
For assay [5], the system named is HOP-18 NSCLC.
For assay [6], the system named is SN12K1 renal.
Assay [7] has as its system P388/ADR leukemia.
The test system of assay [8] is LXFL 529 NSCLC.

As to `O=C1OC2CC=CC1C2` (stereo not drawn), the TGI in assay [1], in assay [2], in assay [3], in assay [4], in assay [5] and in assay [6] was above 100 µM throughout. In assay [7], this molecule yielded a TGI above 100 µM.

For `C=C1C(=O)OC2CC1CCC1(C)OC1CCC(C)=CCCC2(C)O` (stereo not drawn), the TGI in assay [1] amounted to 9.89 µM; in assay [2] it was 11.8 µM; in assay [3] it was 8.58 µM; in assay [4], 3.06 µM; in assay [5] it was 3.37 µM; in assay [6] it was 11.9 µM. In addition, the TGI in assay [7] came to 10.8 µM.

With `O=C(Oc1ccc(Cl)cc1[N+](=O)[O-])c1ccccc1`, the TGI in assay [1], in assay [2], in assay [3], in assay [5] and in assay [8] was above 100 µM in each case.

For the molecule `COc1ccc(OC)c(CC(C)N)c1` (stereo not drawn), the TGI in assay [2], in assay [3], in assay [5] and in assay [8] was above 100 µM throughout.
